Test results taken from patent EP1832576A1, “4-Biarylyl-1-phenolyzetidin-2-ones” (Microbia Inc., priority 2003, dated 2005).

Each molecule was assayed on cholesterol absorption from the intestine (assay: In Vivo Assay of Hypolipidemic Agents using the Rat Cholesterol Absorption Model). Details: po, Table 1, footnote 1, perorally, 10 mg/kg, 3H levels in serum three hours after 3H-cholesterol.
Design: species or system Female Sprague-Dawley rats
Experimental: In Vivo Assay of Hypolipidemic Agents using the Rat Cholesterol Absorption Model. This model is based on models described by Burnett et al (2002), Bioorg. Med. Chem. Lett. 2002 Feb 11;12(3):315-8 and J. Lipid Res. 1999 Oct;40(10):1747-57. Female Sprague-Dawley rats weighing 150-250g are separated into […] and fasted overnight. The animals (4-6/group) are dosed perorally with 300µL test compounds in olive oil or suitable vehicle. Thirty minutes later, 3-5 microCuries ^3H-cholesterol per rat are delivered perorally in 300 µL olive oil. After three hours, 200 µL serum is collected, vortexed with scintillation fluid, and measured for radioactivity in a scintillation counter. Percent inhibition is defined as 100*(1-Ctest/Cctrl), where Ctest and Cctrl refer to ^3H levels in serum for the test compound and for the vehicle only control, respectively. Percent inhibition values are reported for a fixed dose. The ED50 is the dose at which the half-maximal effect on serum ^3H levels is observed for a given test compound.
Representative compounds of the invention were tested in the Rat Cholesterol Absorption model above.
For `O=C1[C@H](CC[C@H](O)c2ccc(F)cc2)[C@@H](c2ccc(-c3ccccc3)cc2)N1c1ccc(F)cc1` [Example 3, (3R,4S)-4-Biphenyl-4-yl-1-(4-fluorophenyl)-3-[(3S)-3-(4-fluorophenyl)-3-hydroxypropyl]azetidin-2-one], the inhibition at 10 mg/kg was 15%. For `COc1ccc(-c2ccc([C@@H]3[C@@H](CC[C@H](O)c4ccc(F)cc4)C(=O)N3c3ccc(F)cc3)cc2)cc1` [Example 5, (3R,4S)-1-(4-fluorophenyl)-3-[(3S)-3-(4-fluorophenyl)-3-hydroxypropyl]-4-(4'-methoxybiphenyl-4-yl)azetidin-2-one], the inhibition at 10 mg/kg was 26%. Molecule `O=C1[C@H](CC[C@H](O)c2ccc(F)cc2)[C@@H](c2ccc(-c3cccc([N+](=O)[O-])c3)cc2)N1c1ccc(F)cc1` [Example 23, (3R,4S)-1-(4-fluorophenyl)-3-[(3S)-3-(4-fluorophenyl)-3-hydroxypropyl]-4-(3'-nitrobiphenyl-4-yl)azetidin-2-one] has an inhibition at 10 mg/kg of 54%. Work on `CC(=O)Nc1cccc(-c2ccc([C@@H]3[C@@H](CC[C@H](O)c4ccc(F)cc4)C(=O)N3c3ccc(F)cc3)cc2)c1` [Example 26, N-(4'-{(2S,3R)-1-(4-fluorophenyl)-3-[(3S)-3-(4-fluorophenyl)-3-hydroxypropyl]-4-oxoazetidin-2-yl}biphenyl-3-yl)acetamide] yielded an inhibition at 10 mg/kg of 76%.

Same assay, conditions: po, Table 1, footnote 2, perorally, 3 mg/kg, 3H levels in serum three hours after 3H-cholesterol
Work on `CS(=O)(=O)c1cccc(-c2ccc([C@@H]3[C@@H](CC[C@H](O)c4ccc(F)cc4)C(=O)N3c3ccc(F)cc3)cc2)c1` [Example 10, (3R,4S)-1-(4-fluorophenyl)-3-[(3S)-3-(4-fluorophenyl)-3-hydroxypropyl]-4-[3'-(methylsulfonyl)biphenyl-4-yl]azetidin-2-one] yielded an inhibition at 3 mg/kg of 54%.

Same assay, conditions: po, Table 1, footnote 3, perorally, 5 mg/kg, 3H levels in serum three hours after 3H-cholesterol
For `N#Cc1cccc(-c2ccc([C@@H]3[C@@H](CC[C@H](O)c4ccc(F)cc4)C(=O)N3c3ccc(F)cc3)cc2)c1` [Example 14, 4'-{(2S,3R)-1-(4-fluorophenyl)-3-[(3S)-3-(4-fluorophenyl)-3-hydroxypropyl]-4-oxoazetidin-2-yl}biphenyl-3-carbonitrile], the inhibition at 5 mg/kg was 32%.

Same assay, conditions: po, Table 1, perorally, 1 mg/kg, 3H levels in serum three hours after 3H-cholesterol, versus vehicle only control
Molecule `O=C1[C@H](CC[C@H](O)c2ccc(F)cc2)[C@@H](c2ccc(-c3ccc(O)cc3)cc2)N1c1ccc(F)cc1` [Example 2, (3R,4S)-1-(4-fluorophenyl)-3-[(3S)-3-(4-fluorophenyl)-3-hydroxypropyl]-4-(4'-hydroxybiphenyl-4-yl)azetidin-2-one] has an inhibition at 1 mg/kg of 54%. With `O=C1[C@H](CC[C@H](O)c2ccc(F)cc2)[C@@H](c2ccc(-c3cccc(O)c3)cc2)N1c1ccc(F)cc1` [Example 4, (3R,4S)-1-(4-Fluorophenyl)-3-[(3S)-3-(4-fluorophenyl)-3-hydroxypropyl]-4-(3'-hydroxybiphenyl-4-yl)azetidin-2-one] the inhibition at 1 mg/kg was 72%. In the case of `O=C1[C@H](CC[C@H](O)c2ccc(F)cc2)[C@@H](c2ccc(-c3ccccc3O)cc2)N1c1ccc(F)cc1` [Example 7, (3R,4S)-1-(4-fluorophenyl)-3-[(3S)-3-(4-fluorophenyl)-3-hydroxypropyl]-4-(2'-hydroxybiphenyl-4-yl)azetidin-2-one], the inhibition at 1 mg/kg is reported as 30%. `CS(=O)(=O)c1ccc(-c2ccc([C@@H]3[C@@H](CC[C@H](O)c4ccc(F)cc4)C(=O)N3c3ccc(F)cc3)cc2)cc1` [Example 8, (3R,4S)-1-(4-fluorophenyl)-3-[(3S)-3-(4-fluorophenyl)-3-hydroxypropyl]-4-[4'-(methylsulfonyl)biphenyl-4-yl]azetidin-2-one] gave an inhibition at 1 mg/kg of 53%. Work on `COc1cc(-c2ccc([C@@H]3[C@@H](CC[C@H](O)c4ccc(F)cc4)C(=O)N3c3ccc(F)cc3)cc2)cc(OC)c1OC` [Example 9, (3R,4S)-1-(4-fluorophenyl)-3-[(3S)-3-(4-fluorophenyl)-3-hydroxypropyl]-4-(3',4',5'-trimethoxybiphenyl-4-yl)azetidin-2-one] yielded an inhibition at 1 mg/kg of 40%. `COc1cccc(-c2ccc([C@@H]3[C@@H](CC[C@H](O)c4ccc(F)cc4)C(=O)N3c3ccc(F)cc3)cc2)c1OC` [Example 11, (3R,4S)-4-(2',3'-dimethoxybiphenyl-4-yl)-1-(4-fluorophenyl)-3-[(3S)-3-(4-fluorophenyl)-3-hydroxypropyl]azetidin-2-one] was tested, and the inhibition at 1 mg/kg was 28%. Work on `COc1cccc(-c2ccc([C@@H]3[C@@H](CC[C@H](O)c4ccc(F)cc4)C(=O)N3c3ccc(F)cc3)cc2)c1` [Example 12, (3R,4S)-1-(4-fluorophenyl)-3-[(3S)-3-(4-fluorophenyl)-3-hydroxypropyl]-4-(3'-methoxybiphenyl-4-yl)azetidin-2-one] yielded an inhibition at 1 mg/kg of 70%. `O=Cc1cccc(-c2ccc([C@@H]3[C@@H](CC[C@H](O)c4ccc(F)cc4)C(=O)N3c3ccc(F)cc3)cc2)c1` [Example 13, 4'-{(2S,3R)-1-(4-fluorophenyl)-3-[(3S)-3-(4-fluorophenyl)-3-hydroxypropyl]-4-oxoazetidin-2-yl}biphenyl-3-carbaldehyde] gave an inhibition at 1 mg/kg of 70%. `CN(C)S(=O)(=O)c1ccc(-c2ccc([C@@H]3[C@@H](CC[C@H](O)c4ccc(F)cc4)C(=O)N3c3ccc(F)cc3)cc2)cc1` [Example 15, 4'-{(2S,3R)-1-(4-fluorophenyl)-3-[(3S)-3-(4-fluorophenyl)-3-hydroxypropyl]-4-oxoazetidin-2-yl}-biphenyl-N,N-dimethylbiphenyl-4-sulfonamide] showed an inhibition at 1 mg/kg of 8%. Work on `O=C1[C@H](CC[C@H](O)c2ccc(F)cc2)[C@@H](c2ccc(-c3cccc(CO)c3)cc2)N1c1ccc(F)cc1` [Example 16, (3R,4S)-1-(4-Fluorophenyl)-3-[(3S)-3-(4-fluorophenyl)-3-hydroxypropyl]-4-(3'-(hydroxymethyl)biphenyl-4-yl)azetidin-2-one] yielded an inhibition at 1 mg/kg of 72%. `CN(C)c1ccc(-c2ccc([C@@H]3[C@@H](CC[C@H](O)c4ccc(F)cc4)C(=O)N3c3ccc(F)cc3)cc2)cc1` [Example 17, (3R,4S)-4-[4'(dimethylamino)biphenyl-4-yl]-1-(4-fluorophenyl)-3-[(3S)-3-(4-fluorophenyl)-3-hydroxypropyl]azetidin-2-one] was tested, and the inhibition at 1 mg/kg was 43%. `O=C1C(CCC(O)c2ccc(F)cc2)C(c2ccc(-c3ccc(CO)cc3)cc2)N1c1ccc(F)cc1` (stereo not drawn) [Example 18] showed an inhibition at 1 mg/kg of 48%. With `O=C1[C@H](CC[C@H](O)c2ccc(F)cc2)[C@@H](c2ccc(-c3cc(O)ccc3Br)cc2)N1c1ccc(F)cc1` [Example 19, (3R,4S)-4-(2'-bromo-5'-hydroxybiphenyl-4-yl)-1-(4-fluorophenyl)-3-[(3S)-3-(4-fluorophenyl)-3-hydroxypropyl]azetidin-2-one] the inhibition at 1 mg/kg was 66%. In the case of `O=C(O)[C@@H]1O[C@H](Oc2cccc(-c3ccc([C@@H]4[C@@H](CC[C@H](O)c5ccc(F)cc5)C(=O)N4c4ccc(F)cc4)cc3)c2)[C@@H](O)[C@H](O)[C@H]1O` [Example 20, 4'-{(2S,3R)-1-(4-fluorophenyl)-3-[(3S)-3-(4-fluorophenyl)-3-hydroxypropyl]-4-oxoazetidin-2-yl}biphenyl-3-yl β-L-glucopyranosiduronic acid], the inhibition at 1 mg/kg is reported as 59%. Work on `O=C(O)c1cccc(-c2ccc([C@@H]3[C@@H](CC[C@H](O)c4ccc(F)cc4)C(=O)N3c3ccc(F)cc3)cc2)c1` [Example 21, 4'-{(2S,3R)-1-(4-fluorophenyl)3-[(3S)-3-(4-fluorophenyl)-3-hydroxypropyl]-4-oxoazetidin-2-yl]biphenyl-3-carboxylic acid] yielded an inhibition at 1 mg/kg of 68%. In the case of `O=C(O)c1ccc(-c2ccc([C@@H]3[C@@H](CC[C@H](O)c4ccc(F)cc4)C(=O)N3c3ccc(F)cc3)cc2)cc1` [Example 22, 4'-{(2S,3R)-1-(4-fluorophenyl)3-[(3S)-3-(4-fluorophenyl)-3-hydroxypropyl]-4-oxoazetidin-2-yl]biphenyl-4-carboxylic acid], the inhibition at 1 mg/kg is reported as 52%. `Nc1ccc(-c2ccc([C@@H]3[C@@H](CC[C@H](O)c4ccc(F)cc4)C(=O)N3c3ccc(F)cc3)cc2)cc1` [Example 28, (3R,4S)-1-(4-fluorophenyl)-3-[(3S)-3-(4-fluorophenyl)-3-hydroxypropyl]-4-(4'-aminobiphenyl-4-yl)azetidin-2-one] showed an inhibition at 1 mg/kg of 56%.

Same assay, conditions: po, Table 2, perorally, 1 mg/kg, 3H levels in serum three hours after 3H-cholesterol, versus vehicle only control
Work on `O=C1[C@H](CC[C@H](O)c2ccc(F)cc2)[C@@H](c2ccc(-c3cccc(O)c3)cc2O)N1c1ccccc1` [Example 42, (3R,4S)-4-(3,3'-Dihydroxybiphenyl-4-yl)-3-[(3S)-3-(4-fluorophenyl)-3-hydroxypropyl]-1-phenylazetidin-2-one] yielded an inhibition at 1 mg/kg of 87%. `O=C1[C@H](CC[C@H](O)c2ccc(F)cc2)[C@@H](c2cccc(-c3cccc(O)c3)c2)N1c1ccc(F)cc1` [Example 44, (3R,4S)-1-(4-fluorophenyl)-3-[(3S)-3-(4-fluorophenyl)-3-hydroxypropyl]-4-(3'-hydroxybiphenyl-3-yl)azetidin-2-one] gave an inhibition at 1 mg/kg of 24%. `O=C1C(CCC(O)c2ccc(F)cc2)C(c2cccc(-c3ccc(O)cc3)c2)N1c1ccc(F)cc1` (stereo not drawn) [Example 46] gave an inhibition at 1 mg/kg of 30%. With `O=C1[C@H](CC[C@H](O)c2ccc(F)cc2)[C@@H](c2ccc(-c3cccc(O)c3)cn2)N1c1ccccc1` [Example 49, (3R,4S)-3-[(3S)-3-(4-fluorophenyl)-3-hydroxypropyl]-4-[5-(3-hydroxyphenyl)pyridin-2-yl]-1-phenylazetidin-2-one] the inhibition at 1 mg/kg was 30%.
